The results in this text go back to paper PMC9281306 (ACS Omega, 2022).

The subject of data set [1] is Mabs ATCC 19977S smooth morphotype. In words: Mabs microdilution antimicrobial assay with purified peptides. The class given is cell-based, Mycobacterium abscessus. Conditions: purified peptide, MHB with EDTA 100 μM, 96 h, 37 °C, OD600, three independent experiments. On the technique in general: In broth dilution the organism is exposed to a series of concentrations in liquid medium.

Data set [2] has as its system Mabs ATCC 19977R rough morphotype. The data set is described as above. The format is cell-based, Mycobacterium abscessus. Conditions: purified peptide, MHB with EDTA 100 μM, 96 h, 37 °C, OD600, three independent experiments.
The test system of data set [3] is E. coli (ATCC 25922). In words: Cross-inhibitory activity assay. The class given is cell-based, Escherichia coli. The settings on record: MHB, 24 h, 37 °C; EDTA not given.
The test system of data set [4] is P. aeruginosa (ATCC 27853). In words: Cross-inhibitory activity assay. The format is cell-based, Pseudomonas aeruginosa. Conditions: MHB, 24 h, 37 °C; EDTA not given.
The test system of data set [5] is MRSA USA300. In words: Cross-inhibitory activity assay. Conditions: MHB, 24 h, 37 °C; EDTA not given. The format is cell-based, Staphylococcus aureus.
For data set [6], the system named is human red blood cell (hRBC). Kind of data set: hRBC hemolytic assay. The class given is cell-based.
Data set [7] concerns E. coli urinary tract infection clinical isolates. The settings on record: MIC in MHB, 22 h, 37 °C, triplicate.

Like-named read-outs stand apart in the source and are kept apart here. Where a SMILES comes first, the peptide text is derived from it. [ ]: non-standard residue; d: D form.

For `CC(C)C[C@@H](NC(=O)[C@@H](C)NC(=O)[C@@H](CCCCN)NC(=O)[C@@H](CCCNC(=N)N)NC(=O)[C@H](Cc1ccccc1)NC(=O)[C@H](CCC(N)=O)NC(=O)[C@H](CC(N)=O)NC(=O)[C@@H](NC(=O)[C@@H](CCCCN)NC(=O)[C@@H](CCCNC(=N)N)NC(=O)[C@H](C)NC(=O)[C@@H](CCCCN)NC(=O)[C@H](CO)NC(=O)[C@@H](CC(C)C)NC(=O)CNC(=O)[C@H](Cc1ccc(O)cc1)NC(=O)[C@H](N)CCCNC(=N)N)C(C)C)C(N)=O` [ASU2009] (H-[dR]YG[dL]S[dK]A[dR][dK]VNQF[dR][dK][dA][dL]-NH2), the “Mabs ATCC19977S MIC” value in data set [1] was found to be 256 µM. Further, the “Mabs ATCC19977R MIC” value in data set [2] came to 256 µM.
In the case of `CC(C)C[C@@H](NC(=O)[C@@H](C)NC(=O)[C@H](CO)NC(=O)[C@@H](CCCCN)NC(=O)[C@@H](CCCNC(=N)N)NC(=O)[C@@H](CCCNC(=N)N)NC(=O)[C@H](Cc1ccccc1)NC(=O)[C@@H](CC(C)C)NC(=O)[C@H](CC(N)=O)NC(=O)[C@H](Cc1c[nH]cn1)NC(=O)[C@@H]1CCCN1C(=O)[C@H](C)NC(=O)[C@H](CO)NC(=O)[C@@H]1CCCN1C(=O)CNC(=O)[C@@H](NC(=O)[C@H](N)CCCNC(=N)N)C(C)C)C(N)=O` [ASU2019] (H-[dR]VGPSAPHN[dL]F[dR][dR][dK]S[dA][dL]-NH2), the “Mabs ATCC19977S MIC” value in data set [1] came out at 256 µM. The “Mabs ATCC19977R MIC” value in data set [2] turned out to be 256 µM.
On to `CC(C)C[C@@H](NC(=O)CNC(=O)[C@@H](Cc1c[nH]c2ccccc12)NC(=O)[C@@H](CCCNC(=N)N)NC(=O)[C@@H](N)CCC(N)=O)C(=O)N[C@@H](CO)C(=O)N[C@H](CC(C)C)C(=O)N[C@@H](C)C(=O)N1CCC[C@H]1C(=O)N[C@@H](Cc1ccc(O)cc1)C(=O)N[C@H](CCCCN)C(=O)N[C@@H](CC(N)=O)C(=O)N[C@@H](Cc1ccccc1)C(=O)N[C@H](CCCNC(=N)N)C(=O)N[C@H](CCCNC(=N)N)C(=O)N[C@H](CC(C)C)C(=O)N[C@@H](CO)C(N)=O` [ASU2056] (H-Q[dR][dW]G[dL]S[dL]APY[dK]NF[dR][dR][dL]S-NH2), for which the “Mabs ATCC19977S MIC” value in data set [1] stood at 32 µM. For the same molecule, the “Mabs ATCC19977R MIC” value in data set [2] was over 256 µM. In addition, in data set [3], the “E. coli ATCC 25922 MIC” value came to 16 µM. Further, the “P. aeruginosa ATCC 27853 MIC” value in data set [4] is over 32 µM. Further, the “MRSA USA300 MIC” value in data set [5] was over 32 µM.
As to `CC(C)C[C@@H](NC(=O)[C@@H](C)NC(=O)CNC(=O)[C@@H](CC(C)C)NC(=O)[C@@H](CCCCN)NC(=O)[C@@H](CCCNC(=N)N)NC(=O)[C@@H](CCCNC(=N)N)NC(=O)[C@H](CC(N)=O)NC(=O)[C@H](Cc1ccc(O)cc1)NC(=O)[C@@H](CCCNC(=N)N)NC(=O)[C@H](C)NC(=O)[C@H](CO)NC(=O)[C@@H](CCCNC(=N)N)NC(=O)CNC(=O)[C@@H](N)Cc1ccc(O)cc1)C(=O)N[C@@H](CO)C(=O)NCC(N)=O` [ASU2059] (H-YG[dR]SA[dR]YN[dR][dR][dK][dL]G[dA][dL]SG-NH2), in data set [1], the “Mabs ATCC19977S MIC” value stood at 256 µM. In data set [2], the “Mabs ATCC19977R MIC” value is 256 µM.
On to `CC(C)C[C@@H](NC(=O)CNC(=O)[C@H](CO)NC(=O)[C@@H](CCCCN)NC(=O)[C@@H](CCCNC(=N)N)NC(=O)[C@@H](Cc1c[nH]c2ccccc12)NC(=O)[C@@H](CCCNC(=N)N)NC(=O)[C@H](Cc1ccccc1)NC(=O)[C@H](CC(N)=O)NC(=O)[C@H](Cc1ccc(O)cc1)NC(=O)[C@@H](CCCNC(=N)N)NC(=O)[C@H](C)NC(=O)[C@H](CO)NC(=O)[C@@H](Cc1c[nH]c2ccccc12)NC(=O)[C@@H](CCCNC(=N)N)NC(=O)CNC(=O)[C@@H](N)C(C)C)C(N)=O` [ASU2060] (H-VG[dR][dW]SA[dR]YNF[dR][dW][dR][dK]SG[dL]-NH2), for which the “Mabs ATCC19977S MIC” value in data set [1] was found to be 8 µM. Further, the “Mabs ATCC19977R MIC” value in data set [2] was determined as 256 µM. Besides, the “E. coli ATCC 25922 MIC” value in data set [3] turned out to be 4 µM. The “P. aeruginosa ATCC 27853 MIC” value in data set [4] stood at 8 µM. Further, the “MRSA USA300 MIC” value in data set [5] came to 8 µM. Further, in data set [6] (32 µM), the hRBC hemolysis result is “less than 1%”.
Regarding `CC1(C)S[C@@H]2[C@H](NC(=O)[C@H](N)c3ccccc3)C(=O)N2[C@H]1C(=O)O` [Ampicillin], the Ampicillin susceptibility entry in data set [7] (E. coli clinical isolate 23) is given as “susceptible”; in data set [7] (E. coli clinical isolate 36) it was “resistant”; in data set [7] (E. coli clinical isolate 97) it was “resistant”; in data set [7] (E. coli clinical isolate 98), “resistant”.
Consider Triton X-100 [reference compound], for which the “hRBC lysis by positive control” value in data set [6] (1%, 4% hRBC in saline, 37 °C, OD475) was “complete hRBC lysis”.
